Where “and” joins values, the source holds several entries; their conditions need not be identical. Equal entries are not always repeated. Inconclusive results are not listed.
Tested on: nude mice, A549 intrarenal xenograft, tumor weight change
Assay: NCI In Vivo Anticancer Drug Screen. Data for tumor model A549 Human Adenocarcinoma of Lung with characteristics of Type II Alveolar Epithelial cells (intrarenal inoculation) in NU/NU BALB/C (nude) mice
Conditions: endpoint: mean tumor weight change, schedule: Q04DX003 (ip), higher = larger tumour
In short: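 Mice bearing transplantable tumors were treated and survival or tumor size recorded. Values are given as treated-group measurement divided by vehicle-control measurement (T/C).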

[1] = dose: 75.0 mg/kg/injection, vehicle: Klucel (hydroxypropylcellulose) (HPC)
[2] = dose: 150.0 mg/kg/injection, vehicle: Klucel (hydroxypropylcellulose) (HPC)
[3] = dose: 100.0 mg/kg/injection, vehicle: Klucel (hydroxypropylcellulose) (HPC)
[4] = dose: 12.5 mg/kg/injection, vehicle: Klucel (hydroxypropylcellulose) (HPC)
[5] = dose: 50.0 mg/kg/injection, vehicle: saline
[6] = dose: 200.0 mg/kg/injection, vehicle: saline with Tween-80
[7] = dose: 75.0 mg/kg/injection, vehicle: saline with Tween-80
[8] = dose: 150.0 mg/kg/injection, vehicle: saline with Tween-80
[9] = dose: 300.0 mg/kg/injection, vehicle: saline with Tween-80
[10] = dose: 12.5 mg/kg/injection, vehicle: saline with Tween-80
[11] = dose: 25.0 mg/kg/injection, vehicle: saline with Tween-80
[12] = dose: 50.0 mg/kg/injection, vehicle: saline with Tween-80
[13] = dose: 100.0 mg/kg/injection, vehicle: saline with Tween-80
[14] = dose: 300.0 mg/kg/injection, vehicle: Klucel (hydroxypropylcellulose) (HPC)
[15] = dose: 600.0 mg/kg/injection, vehicle: Klucel (hydroxypropylcellulose) (HPC)

With CC1Oc2cc3c(-c4c(O)cc(O)c5c(O)c6c(cc45)OC(C)C(C)C6=O)c(O)cc(O)c3c(O)c2C(=O)C1C (stereo not drawn) the T/C (dose: 0.19 mg/kg/injection, vehicle: suspension in saline) was 60 % of control, the T/C (dose: 0.38 mg/kg/injection, vehicle: suspension in saline) was 51 % of control and the T/C (dose: 0.75 mg/kg/injection, vehicle: suspension in saline) was 83 % of control. For the same compound, the T/C (dose: 3.0 mg/kg/injection, vehicle: suspension in saline) was 63 % of control and the T/C (dose: 6.0 mg/kg/injection, vehicle: suspension in saline) was 77 % of control.

With CCCCCNc1ncnc2c(C)[nH]nc12 the T/C (dose: 37.5 mg/kg/injection, vehicle: Klucel (hydroxypropylcellulose) (HPC)) was 82 % of control, the T/C [1] was 105 % of control and the T/C [2] was 100 % of control.

With N#CC(C#N)=NNc1ccc2cn[nH]c2c1 the T/C (dose: 50.0 mg/kg/injection, vehicle: Klucel (hydroxypropylcellulose) (HPC)) was -6 % of control and the T/C [3] was 117 % of control and 124 % of control.

In the case of O=C(/C=C/c1cccnc1)/C=C/c1cccnc1, the T/C [4] is reported as 91 % of control and the T/C [3] is reported as 54 % of control.

For CC1=CCCC2C1(C)CCC(C)C2(C)Cc1cc(O)ccc1O (stereo not drawn), the T/C [3] was 16 % of control.

In the case of O=C1CN(CO)C(=O)N1CO, the T/C [5] is reported as 172 % of control and the T/C (dose: 400.0 mg/kg/injection, vehicle: saline) is reported as 120 % of control.

O=C(Nc1cccnc1)c1ccc([N+](=O)[O-])s1 was tested, and the T/C [6] was 38 % of control and 51 % of control.

With CN(Cc1cnc2nc(N)nc(N)c2n1)c1ccc(C(=O)N[C@@H](CCC(=O)O)C(=O)O)cc1 the T/C (dose: 27.0 mg/kg/injection, vehicle: sodium bicarbonate) was 100 % of control.

For O=C1C=C(N2CC2)C(=O)C(N2CC2)=C1N1CC1, the T/C (dose: 100.0 micrograms/kg/injection, vehicle: saline) was 25 % of control and 29 % of control, the T/C (dose: 144.0 micrograms/kg/injection, vehicle: saline + alcohol) was -27 % of control and the T/C (dose: 240.0 micrograms/kg/injection, vehicle: saline + alcohol) was -14 % of control. The T/C (dose: 400.0 micrograms/kg/injection, vehicle: saline) was 6 % of control.

With C=Cc1cc(OC)c2c(c1)c(=O)oc1c2cc(OC)c2c(O)ccc(C3OC(C)C(O)C(C)(O)C3O)c21 (stereo not drawn) the T/C (dose: 300.0 mg/kg/injection, vehicle: DMSO) was 32 % of control.

In the case of Nc1ccn([C@@H](C=O)C[C@@H](C=O)CO)c(=O)n1, the T/C (dose: 37.5 mg/kg/injection, vehicle: saline with Tween-80) is reported as 42 % of control, the T/C [7] is reported as 245 % of control and the T/C [8] is reported as 66 % of control. For the same compound, the T/C [9] was 216 % of control and 82 % of control, the T/C (dose: 600.0 mg/kg/injection, vehicle: saline with Tween-80) was 48 % of control and the T/C (dose: 1200.0 mg/kg/injection, vehicle: saline with Tween-80) was 26 % of control.

With CC1(O)C=CC(=O)C=C1 the T/C (dose: 25.0 mg/kg/injection, vehicle: water) was 121 % of control and the T/C (dose: 50.0 mg/kg/injection, vehicle: water) was 100 % of control.

For Cc1ccc(C(=O)Nc2ccc(S(=O)(=O)O)c3cc(S(=O)(=O)O)cc(S(=O)(=O)O)c23)cc1NC(=O)c1cccc(NC(=O)Nc2cccc(C(=O)Nc3cc(C(=O)Nc4ccc(S(=O)(=O)O)c5cc(S(=O)(=O)O)cc(S(=O)(=O)O)c45)ccc3C)c2)c1, the T/C (dose: 25.0 mg/kg/injection, vehicle: saline) was 99 % of control, the T/C [5] was 100 % of control and the T/C (dose: 100.0 mg/kg/injection, vehicle: saline) was 112 % of control.

For CN=C(NC)c1ccc(NC(=O)/C=C\c2ccc(/C=C/C(=O)Nc3ccc(C(=NC)NC)cc3)cc2)cc1, the T/C (dose: 3.13 mg/kg/injection, vehicle: Klucel (hydroxypropylcellulose) (HPC)) was 47 % of control, the T/C (dose: 6.25 mg/kg/injection, vehicle: Klucel (hydroxypropylcellulose) (HPC)) was 67 % of control and the T/C [4] was 47 % of control.

COc1ccc(C(C)c2cc3c(cc2OC)OCO3)cc1 (stereo not drawn) was tested, and the T/C [10] was 17 % of control, the T/C [11] was 18 % of control and 43 % of control and the T/C [12] was 33 % of control.

With C=CCNC(=O)c1ccccc1SC(C)=O the T/C [7] was 104 % of control, the T/C [8] was 94 % of control and the T/C [9] was 96 % of control. The T/C (dose: 450.0 mg/kg/injection, vehicle: saline with Tween-80) was 61 % of control.

CCCCOCN(COCCCC)C12CC3CC(CC(C3)C1)C2 was tested, and the T/C [13] was 123 % of control and the T/C (dose: 400.0 mg/kg/injection, vehicle: saline with Tween-80) was 203 % of control.

With NC(N)=NS(=O)(=O)c1ccc(NCc2c3ccccc3nc3ccccc23)cc1 the T/C [2] was 4 % of control, the T/C [14] was 10 % of control and the T/C [15] was -10 % of control. For the same compound, the T/C (dose: 1200.0 mg/kg/injection, vehicle: Klucel (hydroxypropylcellulose) (HPC)) was -7 % of control.

O=C1C2CC(Cl)C(SSC3CC4C(=O)N(SC(Cl)(Cl)C(Cl)Cl)C(=O)C4CC3Cl)CC2C(=O)N1SC(Cl)(Cl)C(Cl)Cl (stereo not drawn) was tested, and the T/C [11] was 123 % of control, the T/C [12] was 78 % of control and the T/C [13] was 98 % of control. The T/C [6] was 73 % of control.

For O=[N+]([O-])c1ccc(N(CCO)CCO)c2c1no[n+]2[O-], the T/C [10] was 53 % of control, the T/C [11] was 83 % of control and the T/C [12] was 34 % of control.

In the case of Cc1nc(C(Cl)(Cl)Cl)[nH]c(=O)c1SCCO, the T/C (dose: 150.0 mg/kg/injection, vehicle: distilled water + Tween-80 + alcohol) is reported as 31 % of control, the T/C (dose: 150.0 mg/kg/injection, vehicle: distilled water + alcohol) is reported as 50 % of control and the T/C (dose: 300.0 mg/kg/injection, vehicle: distilled water + Tween-80 + alcohol) is reported as 181 % of control. The T/C (dose: 300.0 mg/kg/injection, vehicle: distilled water + alcohol) was 26 % of control and the T/C (dose: 600.0 mg/kg/injection, vehicle: distilled water + alcohol) was 2 % of control.

In the case of O=S(=O)(c1cccc(N=C=S)c1)c1cccc(N=C=S)c1, the T/C (dose: 30.0 mg/kg/injection, vehicle: Klucel (hydroxypropylcellulose) (HPC)) is reported as 67 % of control.

For O=C1CC2(C(=O)N1CN1CCOCC1)c1ccccc1-c1ccccc12, the T/C [2] was 36 % of control, the T/C (dose: 216.0 mg/kg/injection, vehicle: Klucel (hydroxypropylcellulose) (HPC)) was 21 % of control and the T/C [14] was 28 % of control. The T/C (dose: 360.0 mg/kg/injection, vehicle: Klucel (hydroxypropylcellulose) (HPC)) was 23 % of control and the T/C [15] was 11 % of control.

In the case of C[n+]1c(-c2ccc(NC(=O)c3ccc(C(=O)Nc4ccc(-c5cn6ccccc6[n+]5C)cc4)cc3)cc2)cn2ccccc21, the T/C [10] is reported as 47 % of control and the T/C [11] is reported as 49 % of control.

O=C(NC(Cc1ccc(I)cc1)C(=O)O)c1ccc(Br)cc1 (stereo not drawn) was tested, and the T/C (dose: 37.5 mg/kg/injection, vehicle: other) was 51 % of control, the T/C (dose: 37.5 mg/kg/injection, vehicle: sodium bicarbonate) was 78 % of control and the T/C (dose: 75.0 mg/kg/injection, vehicle: other) was 7 % of control. For the same compound, the T/C (dose: 75.0 mg/kg/injection, vehicle: sodium bicarbonate) was 103 % of control, the T/C (dose: 150.0 mg/kg/injection, vehicle: other) was 9 % of control and the T/C (dose: 150.0 mg/kg/injection, vehicle: sodium bicarbonate) was 83 % of control.

O=C1c2ccccc2C(Cl)(c2ccc(Cl)cc2)c2ccc(Cl)cc21 (stereo not drawn) was tested, and the T/C [8] was 244 % of control.

For COc1cc2c[n+](C)c3c(c2cc1OC)Cc1cc2c(cc1-3)OCO2, the T/C (dose: 18.75 mg/kg/injection, vehicle: saline with Tween-80) was 39 % of control.

For C=C1c2cccc(O)c2C(O)=C2C(=O)[C@]3(O)C(O)=C(C(N)=O)C(=O)[C@@H](N(C)C)[C@@H]3[C@@H](O)[C@H]12, the T/C [1] was 96 % of control.

Source: PubChem BioAssay AID278 (DTP/NCI, 2004)
